The text below walks through data of ChEMBL document CHEMBL1177886, “Synthesis and biological evaluation of a novel series of 2,2-bisaminomethylated aurone analogues as anti-inflammatory and antimicrobial agents” (Eur J Med Chem, 2010).

Usually MIC stands for the least concentration at which growth counts as inhibited. The low end stands for greater potency, the high end for weaker potency. The inhibition is the percentage by which the read-out fell short of the control.

Converted amounts (≈) assume the structure as drawn.

The subject of one data set is Aspergillus niger. The data set is described as follows: Antifungal activity against Aspergillus niger NCIM 545 after 72 hrs by disc diffusion method. The following applies: for MIC: Aspergillus niger, NCIM 545, 72 h. It is filed as functional. On the technique in general: In agar diffusion tests the substance spreads into inoculated agar from a disc or well.
In the next data set the test system is Candida albicans. The data set is described as follows: Antifungal activity against Candida albicans NCIM 3100 after 72 hrs by disc diffusion method. The data set is classed as functional. The following applies: for MIC: Candida albicans, NCIM 3100, 72 h.
The subject of data set [1] is Proteus vulgaris. The data set is described as follows: Antibacterial activity against Proteus vulgaris NCIM 2813 after 24 hrs by disc diffusion method. It is filed as functional. The following applies: for MIC: Proteus vulgaris, NCIM 2813, 24 h.
The subject of data set [2] is Bacillus subtilis. The data set is described as follows: Antibacterial activity against Bacillus subtilis after 24 hrs by disc diffusion method.
Data set [3] in a line: Cytotoxicity against human THP-1 cells at 10 uM. The following applies: THP-1, 10 µM.
In another data set the test system is Penicillium chrysogenum. The data set is described as follows: Antifungal activity against Penicillium chrysogenum NCIM 707 after 72 hrs by disc diffusion method. It is filed as functional. To be noted: for MIC: Penicillium chrysogenum, NCIM 707, 72 h.
For data set [4], the system named is THP-1. The data set is described as follows: Antiinflammatory activity in human THP1 cells assessed as inhibition of LPS-induced IL-6 production at 10 uM treated 30 mins before LPS challenge measured after 24 hrs by ELISA relative to control. It is filed as functional.
The next data set deals with Trichoderma viride. The data set is described as follows: Antifungal activity against Trichoderma viride TT after 72 hrs by disc diffusion method. It is filed as functional. To be noted: for MIC: Trichoderma viride, TT, 72 h.
Data set [5] relates to Klebsiella pneumoniae. The data set is described as follows: Antibacterial activity against Klebsiella pneumoniae NCIM 5082 after 24 hrs by disc diffusion method. The data set is classed as functional. To be noted: for MIC: Klebsiella pneumoniae, NCIM 5082, 24 h.
Data set [6] deals with Bacillus subtilis. The data set is described as follows: Antibacterial activity against Bacillus subtilis NCIM 2546 after 24 hrs by disc diffusion method. The data set is classed as functional. To be noted: for MIC: Bacillus subtilis, NCIM 2546, 24 h.
For data set [7], the system named is THP-1. The data set is described as follows: Antiinflammatory activity in human THP1 cells assessed as inhibition of LPS-induced TNFalpha production at 10 uM treated 30 mins before LPS challenge measured after 24 hrs by ELISA relative to control. The data set is classed as functional.
The subject of data set [8] is Staphylococcus aureus. The data set is described as follows: Antibacterial activity against Staphylococcus aureus NCIM 2120 after 24 hrs by disc diffusion method. It is filed as functional. The following applies: for MIC: Staphylococcus aureus, NCIM 2120, 24 h.
The subject of a further data set is Aspergillus fumigatus. The data set is described as follows: Antifungal activity against Aspergillus fumigatus NCIM 902 after 72 hrs by disc diffusion method. It is filed as functional. The following applies: for MIC: Aspergillus fumigatus, NCIM 902, 72 h.
In data set [9] the test system is Escherichia coli. The data set is described as follows: Antibacterial activity against Escherichia coli NCIM 2065 after 24 hrs by disc diffusion method. The data set is classed as functional. The following applies: Escherichia coli, NCIM 2065, 24 h.
Data set [10] relates to THP-1. The data set is described as follows: Antiinflammatory activity in human THP1 cells assessed as inhibition of LPS-induced IL-6 production at 1 uM treated 30 mins before LPS challenge measured after 24 hrs by ELISA relative to control. The data set is classed as functional. For orientation: An ELISA detects its analyte on a solid surface through an enzyme-linked reagent.

For data set [11], the system named is THP-1. The data set is described as follows: Antiinflammatory activity in human THP1 cells assessed as inhibition of LPS-induced TNFalpha production at 1 uM treated 30 mins before LPS challenge measured after 24 hrs by ELISA relative to control. It is filed as functional.
Data set [12] deals with Staphylococcus aureus. The following applies: NCIM 2120.
For data set [13], the system named is Escherichia coli. To be noted: NCIM 2065.
Data set [14] relates to Klebsiella pneumoniae. To be noted: NCIM 5082.
Data set [15] has as its system Proteus vulgaris. The following applies: NCIM 2813.
Data set [16] concerns Bacillus subtilis. To be noted: NCIM 2546.

`CCN(CC)CC1(CN(CC)CC)Oc2cc(OC)cc(OC)c2C1=O`: the “inhibition zone (IZ)” value with Aspergillus niger is reported as 17 mm; with Candida albicans it was 16 mm; in the data set on Proteus vulgaris [1], 17 mm; in the data set with Bacillus subtilis [2], 17 mm; with Penicillium chrysogenum, 15 mm; in the data set on Trichoderma viride, 16 mm. Besides, the “inhibition zone (IZ)” value with Klebsiella pneumoniae [5] was 17 mm; with Bacillus subtilis [6], 18 mm; in the data set on Staphylococcus aureus [8], 16 mm; with Aspergillus fumigatus, 17 mm. The MIC against Aspergillus niger turned out to be 25 µg/mL (≈ 68.6 µM); against Candida albicans, 25 µg/mL (≈ 68.6 µM); against Proteus vulgaris [1], 25 µg/mL (≈ 68.6 µM); in the data set on Penicillium chrysogenum it was 50 µg/mL (≈ 137 µM); in the data set on Trichoderma viride, 25 µg/mL (≈ 68.6 µM); with Klebsiella pneumoniae [5] it was 25 µg/mL (≈ 68.6 µM). Also, the MIC against Bacillus subtilis [6], in the data set with Staphylococcus aureus [8], with Aspergillus fumigatus and against Escherichia coli [9] was 25 µg/mL (≈ 68.6 µM) in each case. Also, the Activity in data set [3] is 37%. For the same compound, the results for the inhibition at 10 µM with THP-1 [4] and with THP-1 [7] were 74% and 28%, respectively.
On to `C[C@@H]1C[C@H]2[C@@H]3CCC4=CC(=O)C=C[C@]4(C)[C@@]3(F)[C@@H](O)C[C@]2(C)[C@@]1(O)C(=O)CO` [DEXAMETHASONE], for which the inhibition at 1 µM with THP-1 [10] came to 90%; in the data set on THP-1 [11], 69%.
For the compound `CCCCN(CCCC)CC1(CN(CCCC)CCCC)Oc2cc(OC)cc(OC)c2C1=O`, the “inhibition zone (IZ)” value in the data set with Aspergillus niger stood at 26 mm; with Candida albicans, 17 mm; in the data set on Proteus vulgaris [1], 22 mm; in the data set with Bacillus subtilis [2], 18 mm; with Penicillium chrysogenum it was 24 mm; with Trichoderma viride it was 16 mm. Also, the “inhibition zone (IZ)” value came out at 21 mm in the data set with Klebsiella pneumoniae [5], 21 mm in the data set with Bacillus subtilis [6], 18 mm in the data set on Staphylococcus aureus [8] and 22 mm in the data set on Aspergillus fumigatus. The minimum inhibitory concentration (MIC) against Aspergillus niger, in the data set on Candida albicans, against Proteus vulgaris [1], against Penicillium chrysogenum, with Trichoderma viride and with Klebsiella pneumoniae [5] was 25 µg/mL (≈ 52.4 µM) each time. The MIC against Bacillus subtilis [6], with Staphylococcus aureus [8], against Aspergillus fumigatus and with Escherichia coli [9] was 25 µg/mL (≈ 52.4 µM) each time. The compound further returned an Activity in data set [3] of 65%. Further, the inhibition at 10 µM was found to be 37% with THP-1 [4] and 17% with THP-1 [7].
Turning to GENTAMICIN, the MIC against Staphylococcus aureus [12], against Escherichia coli [13], with Klebsiella pneumoniae [14], in the data set with Proteus vulgaris [15] and in the data set with Bacillus subtilis [16] was 25 µg/mL throughout. The IZ in the data set with Klebsiella pneumoniae [14] was determined as 24 mm; with Proteus vulgaris [15], 24 mm; in the data set with Bacillus subtilis [16], 21 mm.
